“And” between values parts separate entries of the source, which are not always exact repeats. Identical values can stand only once. Inconclusive results and toxic doses are left out.
Test system: CD2F1 mice, L1210 leukemia ip, survival T/C
Assay: NCI In Vivo Anticancer Drug Screen. Data for tumor model L1210 Leukemia (intraperitoneal) in CD2F1 (CDF1) mice
Conditions: higher = longer survival
Description: The antitumor activity of compounds was measured in mice bearing transplantable tumors. Survival or tumor size were measured and the results are expressed as the measurement made in the treated group (T) divided by the measurement made in the vehicle treated control group (C). The tumor model used in this assay is L1210 Leukemia (intraperitoneal) in CD2F1 (CDF1) mice

[1] = endpoint: mean survival time, dose: 100.0 mg/kg/injection, schedule: Q01DX009 (ip), vehicle: Klucel (hydroxypropylcellulose) (HPC)
[2] = endpoint: mean survival time, dose: 200.0 mg/kg/injection, schedule: Q01DX009 (ip), vehicle: Klucel (hydroxypropylcellulose) (HPC)
[3] = endpoint: mean survival time, dose: 400.0 mg/kg/injection, schedule: Q01DX009 (ip), vehicle: Klucel (hydroxypropylcellulose) (HPC)
[4] = endpoint: mean survival time, dose: 50.0 mg/kg/injection, schedule: Q01DX009 (ip), vehicle: saline
[5] = endpoint: mean survival time, dose: 100.0 mg/kg/injection, schedule: Q01DX009 (ip), vehicle: saline
[6] = endpoint: mean survival time, dose: 25.0 mg/kg/injection, schedule: Q01DX009 (ip), vehicle: saline

With `CC(=O)N(C)c1ccc(NC(=O)Nc2ccc(C)cc2[N+](=O)[O-])cc1` the T/C [1] was 95 % of control, the T/C [2] was 92 % of control and the T/C [3] was 92 % of control.

With `Nc1c(-c2nccc(=O)[nH]2)ncn1C1OC(CO)C(O)C1O` (stereo not given) the T/C (endpoint: median survival time, dose: 12.5 mg/kg/injection, schedule: Q01DX005 (ip), vehicle: saline with Tween-80) was 102 % of control, the T/C (endpoint: median survival time, dose: 25.0 mg/kg/injection, schedule: Q01DX005 (ip), vehicle: saline with Tween-80) was 96 % of control and the T/C (endpoint: median survival time, dose: 50.0 mg/kg/injection, schedule: Q01DX005 (ip), vehicle: saline with Tween-80) was 103 % of control. For the same compound, the T/C (endpoint: median survival time, dose: 100.0 mg/kg/injection, schedule: Q01DX005 (ip), vehicle: saline with Tween-80) was 98 % of control and the T/C (endpoint: median survival time, dose: 200.0 mg/kg/injection, schedule: Q01DX005 (ip), vehicle: saline with Tween-80) was 102 % of control.

With `CC([NH-])C(C)[NH-].CC([NH-])C(C)[NH-].[Cl][Co][Cl]` (stereo not given) the T/C (endpoint: mean survival time, dose: 100.0 mg/kg/injection, schedule: Q04DX002 (ip), vehicle: saline) was 103 % of control.

`[I][Pt+2][I].[NH-]c1ccc(F)cc1.[NH-]c1ccc(F)cc1` was tested, and the T/C (endpoint: mean survival time, dose: 3.13 mg/kg/injection, schedule: Q04DX003 (ip), vehicle: distilled water + Tween-80) was 108 % of control, the T/C (endpoint: mean survival time, dose: 6.25 mg/kg/injection, schedule: Q04DX003 (ip), vehicle: distilled water + Tween-80) was 108 % of control and the T/C (endpoint: mean survival time, dose: 12.5 mg/kg/injection, schedule: Q04DX003 (ip), vehicle: distilled water + Tween-80) was 98 % of control. The T/C (endpoint: mean survival time, dose: 25.0 mg/kg/injection, schedule: Q04DX003 (ip), vehicle: distilled water + Tween-80) was 101 % of control, the T/C (endpoint: mean survival time, dose: 50.0 mg/kg/injection, schedule: Q04DX003 (ip), vehicle: distilled water + Tween-80) was 108 % of control and the T/C (endpoint: mean survival time, dose: 100.0 mg/kg/injection, schedule: Q04DX003 (ip), vehicle: distilled water + Tween-80) was 87 % of control.

In the case of `Cc1cc2ccc(Cl)cc2[nH]1`, the T/C (endpoint: mean survival time, dose: 100.0 mg/kg/injection, schedule: Q01DX001 (ip), vehicle: other) is reported as 104 % of control and the T/C (endpoint: mean survival time, dose: 200.0 mg/kg/injection, schedule: Q01DX001 (ip), vehicle: other) is reported as 104 % of control.

`CN(C)c1ccc(Cc2ccc(N(C)C)nc2)cn1` was tested, and the T/C [1] was 104 % of control, the T/C [2] was 98 % of control and the T/C [3] was 92 % of control.

`NC(=O)C(Cc1ccccc1)NC(=O)c1ccccc1` (stereo not given) was tested, and the T/C (endpoint: mean survival time, dose: 100.0 mg/kg/injection, schedule: Q01DX009 (ip), vehicle: saline with Tween-80) was 91 % of control.

In the case of `N=C(N)SSC(=N)N`, the T/C [4] is reported as 96 % of control and the T/C [5] is reported as 100 % of control.

In the case of `ClCC[N+]12CC[N+](CCCl)(CC1)C2`, the T/C (endpoint: mean survival time, dose: 6.25 mg/kg/injection, schedule: Q01DX009 (ip), vehicle: water) is reported as 95 % of control and 106 % of control and 109 % of control, the T/C (endpoint: mean survival time, dose: 12.5 mg/kg/injection, schedule: Q01DX009 (ip), vehicle: saline) is reported as 106 % of control [middle of 4 runs] and the T/C (endpoint: mean survival time, dose: 12.5 mg/kg/injection, schedule: Q01DX009 (ip), vehicle: water) is reported as 117 % of control and 104 % of control and 108 % of control. For the same compound, the T/C [6] was 110 % of control [middle of 4 runs], the T/C (endpoint: mean survival time, dose: 25.0 mg/kg/injection, schedule: Q01DX009 (ip), vehicle: water) was 115 % of control and 106 % of control and 109 % of control and the T/C [4] was 117 % of control and 102 % of control and 109 % of control. For the same compound, the T/C (endpoint: mean survival time, dose: 50.0 mg/kg/injection, schedule: Q01DX009 (ip), vehicle: water) was 113 % of control and 119 % of control and 120 % of control, the T/C (endpoint: mean survival time, dose: 50.0 mg/kg/injection, schedule: Q04DX003 (ip), vehicle: saline) was 102 % of control and the T/C (endpoint: mean survival time, dose: 66.0 mg/kg/injection, schedule: Q01DX009 (ip), vehicle: saline) was 154 % of control. For the same compound, the T/C [5] was 116 % of control and 94 % of control, the T/C (endpoint: mean survival time, dose: 100.0 mg/kg/injection, schedule: Q01DX009 (ip), vehicle: water) was 111 % of control and the T/C (endpoint: mean survival time, dose: 100.0 mg/kg/injection, schedule: Q04DX003 (ip), vehicle: saline) was 102 % of control. The T/C (endpoint: mean survival time, dose: 150.0 mg/kg/injection, schedule: Q01DX009 (ip), vehicle: saline) was 190 % of control, the T/C (endpoint: mean survival time, dose: 150.0 mg/kg/injection, schedule: Q04DX003 (ip), vehicle: saline) was 118 % of control and the T/C (endpoint: mean survival time, dose: 200.0 mg/kg/injection, schedule: Q01DX009 (ip), vehicle: saline) was 108 % of control [middle of 5 runs]. The T/C (endpoint: mean survival time, dose: 200.0 mg/kg/injection, schedule: Q04DX003 (ip), vehicle: saline) was 123 % of control, the T/C (endpoint: mean survival time, dose: 300.0 mg/kg/injection, schedule: Q04DX003 (ip), vehicle: saline) was 119 % of control and the T/C (endpoint: mean survival time, dose: 400.0 mg/kg/injection, schedule: Q01DX009 (ip), vehicle: saline) was 121 % of control and 105 % of control. The T/C (endpoint: mean survival time, dose: 400.0 mg/kg/injection, schedule: Q04DX003 (ip), vehicle: saline) was 178 % of control.

With `CNC(=O)CCl` the T/C [6] was 103 % of control, the T/C [4] was 105 % of control and the T/C [5] was 104 % of control.

Reference: PubChem BioAssay AID256 (DTP/NCI, 2004)
